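Each compound was tested at five concentrations against cells in 96-well plates for 48 hours. At the GI50, growth is halved. TGI marks complete inhibition of growth.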
Experiments:
Experiment in all cases: growth of human tumour cells (NCI), 48 h
A498 renal = system: A498 renal
CAKI-1 renal = system: CAKI-1 renal
HL-60(TB) leukemia = system: HL-60(TB) leukemia
HOP-62 NSCLC = system: HOP-62 NSCLC
HOP-92 NSCLC = system: HOP-92 NSCLC
MDA-MB-435 = system: MDA-MB-435
NCI/ADR-RES ovarian = system: NCI/ADR-RES ovarian
T-47D breast = system: T-47D breast
UACC-257 melanoma = system: UACC-257 melanoma
UACC-62 melanoma = system: UACC-62 melanoma

SMILES: CN1CCN(Cc2ccc(NC(=O)c3cncc(C#Cc4cncc5[nH]ncc45)c3)cc2C(F)(F)F)CC1
- GI50 (A498 renal): 275 nM
- TGI (A498 renal): 1.56 µM
- GI50 (CAKI-1 renal): 790 nM
- TGI (CAKI-1 renal): 2.6 µM
- GI50 (HL-60(TB) leukemia): 249 nM
- TGI (HL-60(TB) leukemia): 1.38 µM
- GI50 (HOP-62 NSCLC): 882 nM
- TGI (HOP-62 NSCLC): 4.86 µM
- GI50 (HOP-92 NSCLC): 156 nM
- TGI (HOP-92 NSCLC): 1.26 µM
- GI50 (MDA-MB-435): 556 nM
- TGI (MDA-MB-435): 5.33 µM
- GI50 (NCI/ADR-RES ovarian): 4090 nM
- TGI (NCI/ADR-RES ovarian): 11.3 µM
- GI50 (T-47D breast): 1800 nM
- TGI (T-47D breast): 9.4 µM
- GI50 (UACC-257 melanoma): 500 nM
- TGI (UACC-257 melanoma): 4.48 µM
- GI50 (UACC-62 melanoma): 336 nM
- TGI (UACC-62 melanoma): 1.31 µM

SMILES: N#CSc1cc(-c2nc3ccccc3o2)ccc1N
- GI50 (A498 renal): 31200 nM
- TGI (A498 renal): > 82.2 µM
- GI50 (CAKI-1 renal): 25500 nM
- TGI (CAKI-1 renal): 61.9 µM
- GI50 (HL-60(TB) leukemia): 195 nM
- TGI (HL-60(TB) leukemia): 0.552 µM
- GI50 (HOP-62 NSCLC): 52700 nM
- TGI (HOP-62 NSCLC): > 100 µM
- GI50 (HOP-92 NSCLC): 22400 nM
- TGI (HOP-92 NSCLC): 64.2 µM
- GI50 (MDA-MB-435): 24000 nM
- TGI (MDA-MB-435): 64.1 µM
- GI50 (NCI/ADR-RES ovarian): 22200 nM
- TGI (NCI/ADR-RES ovarian): 87.5 µM
- GI50 (T-47D breast): 7500 nM
- TGI (T-47D breast): 90 µM
- GI50 (UACC-257 melanoma): 1770 nM
- TGI (UACC-257 melanoma): 26.4 µM
- GI50 (UACC-62 melanoma): 13600 nM
- TGI (UACC-62 melanoma): 30.8 µM

SMILES: CCCCOc1nc2ccccc2cc1C1CNC(=O)c2ccccc2N1 (configuration not stated)
- GI50 (A498 renal): 807 nM
- TGI (A498 renal): 5.3 µM
- GI50 (CAKI-1 renal): 3110 nM
- TGI (CAKI-1 renal): 23.6 µM
- GI50 (HL-60(TB) leukemia): 357 nM
- TGI (HL-60(TB) leukemia): 1.9 µM
- GI50 (HOP-62 NSCLC): 3080 nM
- TGI (HOP-62 NSCLC): 17.7 µM
- GI50 (HOP-92 NSCLC): 4570 nM
- TGI (HOP-92 NSCLC): 26.6 µM
- GI50 (MDA-MB-435): 546 nM
- TGI (MDA-MB-435): 1.82 µM
- GI50 (NCI/ADR-RES ovarian): 2120 nM
- TGI (NCI/ADR-RES ovarian): 8.76 µM
- GI50 (T-47D breast): 5550 nM
- TGI (T-47D breast): > 100 µM
- GI50 (UACC-257 melanoma): 8160 nM
- TGI (UACC-257 melanoma): > 100 µM
- GI50 (UACC-62 melanoma): 1950 nM
- TGI (UACC-62 melanoma): 12.3 µM

SMILES: COc1ccc(C2C3=C(COC3=O)N(CCO)c3cc4c(cc32)CCC4)cc1OC (configuration not stated)
- GI50 (A498 renal): 242 nM
- TGI (A498 renal): > 20 µM
- GI50 (CAKI-1 renal): 858 nM
- TGI (CAKI-1 renal): > 50 µM
- GI50 (HL-60(TB) leukemia): 328 nM
- TGI (HL-60(TB) leukemia): > 10.5 µM
- GI50 (HOP-62 NSCLC): 1080 nM
- TGI (HOP-62 NSCLC): > 50 µM
- GI50 (HOP-92 NSCLC): > 50000 nM
- TGI (HOP-92 NSCLC): > 50 µM
- GI50 (MDA-MB-435): 132 nM
- TGI (MDA-MB-435): 0.448 µM
- GI50 (NCI/ADR-RES ovarian): 2520 nM
- TGI (NCI/ADR-RES ovarian): > 36.4 µM
- GI50 (T-47D breast): 797 nM
- TGI (T-47D breast): > 50 µM
- GI50 (UACC-257 melanoma): > 50000 nM
- TGI (UACC-257 melanoma): > 50 µM
- GI50 (UACC-62 melanoma): 318 nM
- TGI (UACC-62 melanoma): > 50 µM

SMILES: O=C(c1nc2ccccc2[nH]1)C1C(c2cccc([N+](=O)[O-])c2)C2CC3CCCCC3N2[C@@]12C(=O)Nc1cc(Cl)ccc12 (some centres not stated)
- GI50 (CAKI-1 renal): 1430 nM
- TGI (CAKI-1 renal): 3.94 µM
- GI50 (HL-60(TB) leukemia): 2580 nM
- TGI (HL-60(TB) leukemia): 6.67 µM
- GI50 (HOP-62 NSCLC): 1860 nM
- TGI (HOP-62 NSCLC): 4.62 µM
- GI50 (HOP-92 NSCLC): 1370 nM
- TGI (HOP-92 NSCLC): 3.64 µM
- GI50 (MDA-MB-435): 1650 nM
- TGI (MDA-MB-435): 3.19 µM
- GI50 (NCI/ADR-RES ovarian): 2510 nM
- TGI (NCI/ADR-RES ovarian): 8.18 µM
- GI50 (T-47D breast): 998 nM
- TGI (T-47D breast): > 100 µM
- GI50 (UACC-257 melanoma): 1900 nM
- TGI (UACC-257 melanoma): 6.09 µM
- GI50 (UACC-62 melanoma): 1500 nM
- TGI (UACC-62 melanoma): 3.2 µM

SMILES: NC(=S)c1cn(C2OC(CO)C(O)C2O)c2ncnc(N)c12 (configuration not stated)
- GI50 (A498 renal): 535 nM
- TGI (A498 renal): 3.01 µM
- GI50 (CAKI-1 renal): 221 nM
- TGI (CAKI-1 renal): 2.22 µM
- GI50 (HL-60(TB) leukemia): 180 nM
- TGI (HL-60(TB) leukemia): 26.7 µM
- GI50 (HOP-62 NSCLC): 65 nM
- TGI (HOP-62 NSCLC): 1.95 µM
- GI50 (HOP-92 NSCLC): 154 nM
- GI50 (MDA-MB-435): 63.3 nM
- TGI (MDA-MB-435): 0.262 µM
- GI50 (NCI/ADR-RES ovarian): 192 nM
- TGI (NCI/ADR-RES ovarian): 8.24 µM
- GI50 (T-47D breast): 19.5 nM
- TGI (T-47D breast): 0.0929 µM
- GI50 (UACC-257 melanoma): 166 nM
- TGI (UACC-257 melanoma): 0.571 µM
- GI50 (UACC-62 melanoma): 124 nM
- TGI (UACC-62 melanoma): 0.406 µM

SMILES: CCn1c(-c2nonc2N)nc2c(C#CC(C)(C)O)ncc(OCC3CCNCC3)c21
- GI50 (A498 renal): 384 nM
- TGI (A498 renal): 12.7 µM
- GI50 (CAKI-1 renal): 17200 nM
- TGI (CAKI-1 renal): > 25 µM
- GI50 (HL-60(TB) leukemia): 6630 nM
- TGI (HL-60(TB) leukemia): 17.2 µM
- GI50 (HOP-62 NSCLC): 11500 nM
- TGI (HOP-62 NSCLC): > 25 µM
- GI50 (HOP-92 NSCLC): > 25000 nM
- TGI (HOP-92 NSCLC): > 25 µM
- GI50 (MDA-MB-435): 13700 nM
- TGI (MDA-MB-435): > 25 µM
- GI50 (NCI/ADR-RES ovarian): 12800 nM
- TGI (NCI/ADR-RES ovarian): > 25 µM
- GI50 (T-47D breast): > 25000 nM
- TGI (T-47D breast): > 25 µM
- GI50 (UACC-257 melanoma): > 20700 nM
- TGI (UACC-257 melanoma): > 25 µM
- GI50 (UACC-62 melanoma): 8020 nM
- TGI (UACC-62 melanoma): > 25 µM

SMILES: O=C(Nc1ccc(Oc2cccc(Cl)c2)c(Cl)c1)c1cccnc1
- GI50 (A498 renal): 1520 nM
- TGI (A498 renal): 4.68 µM
- GI50 (CAKI-1 renal): 2630 nM
- TGI (CAKI-1 renal): 36.6 µM
- GI50 (HL-60(TB) leukemia): 1510 nM
- TGI (HL-60(TB) leukemia): 6.16 µM
- GI50 (HOP-62 NSCLC): 1800 nM
- TGI (HOP-62 NSCLC): 25.1 µM
- GI50 (HOP-92 NSCLC): 2730 nM
- TGI (HOP-92 NSCLC): 22.1 µM
- GI50 (MDA-MB-435): 155 nM
- TGI (MDA-MB-435): 0.723 µM
- GI50 (NCI/ADR-RES ovarian): 1280 nM
- TGI (NCI/ADR-RES ovarian): 11.3 µM
- GI50 (T-47D breast): 1910 nM
- TGI (T-47D breast): > 50 µM
- GI50 (UACC-257 melanoma): 5100 nM
- TGI (UACC-257 melanoma): 27 µM
- GI50 (UACC-62 melanoma): 3890 nM
- TGI (UACC-62 melanoma): > 50 µM

SMILES: O=C(N/N=C\c1cc(Br)cc(Br)c1O)N/N=C/c1cc(Br)cc(Br)c1O
- GI50 (A498 renal): 7810 nM
- TGI (A498 renal): 22.8 µM
- GI50 (CAKI-1 renal): 3290 nM
- TGI (CAKI-1 renal): 15.9 µM
- GI50 (HL-60(TB) leukemia): 1280 nM
- TGI (HL-60(TB) leukemia): 4.76 µM
- GI50 (HOP-62 NSCLC): 8990 nM
- TGI (HOP-62 NSCLC): 22.8 µM
- GI50 (HOP-92 NSCLC): 1850 nM
- TGI (HOP-92 NSCLC): 16.4 µM
- GI50 (MDA-MB-435): 2670 nM
- TGI (MDA-MB-435): 17.8 µM
- GI50 (NCI/ADR-RES ovarian): 3160 nM
- TGI (NCI/ADR-RES ovarian): 16 µM
- GI50 (T-47D breast): 4020 nM
- TGI (T-47D breast): 17.7 µM
- GI50 (UACC-257 melanoma): 2480 nM
- TGI (UACC-257 melanoma): 8.92 µM
- GI50 (UACC-62 melanoma): 1800 nM
- TGI (UACC-62 melanoma): 10.2 µM

Reference: PubChem BioAssay (NCI)
